Assays:
[1] = system: central nervous system and renal afferent nerve; conditions: Gruber & Callahan 1989; Klein et al. 1985; Lin et al. 1987; cited from earlier work
[2] = system: pigmentation; conditions: Ling et al. 1979; Slominski et al. 1992; cited from earlier work
[3] = biological target: rat MC3-R (Rattus norvegicus, UniProt P32244); assay: Intracellular cAMP production in recombinant MC3-R expressing human 293 cells; format: cell-based
rat MC3-R, sequence (P32244 whole entry): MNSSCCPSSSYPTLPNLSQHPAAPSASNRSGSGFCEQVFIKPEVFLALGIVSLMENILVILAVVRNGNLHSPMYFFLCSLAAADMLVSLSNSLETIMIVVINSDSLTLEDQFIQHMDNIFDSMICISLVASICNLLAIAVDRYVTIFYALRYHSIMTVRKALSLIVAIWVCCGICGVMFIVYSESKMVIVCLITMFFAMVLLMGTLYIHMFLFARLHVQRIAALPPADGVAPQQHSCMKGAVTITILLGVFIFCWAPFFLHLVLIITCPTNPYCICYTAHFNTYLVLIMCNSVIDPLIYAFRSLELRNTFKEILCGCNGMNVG
Protocol: This property of cells expressing melanocortin receptors was used to analyze expression of MC3-R in cells transfected with the expression vectors described herein as follows.
Following hormone treatment, the cells were washed twice with phosphate buffered saline and intracellular cAMP extracted by lysing the cells with 1 ml of 60% ethanol.

## CSCC[C@H](NC(=O)[C@@H](NC(=O)[C@@H](N)Cc1ccc(O)cc1)C(C)C)C(=O)NCC(=O)N[C@@H](Cc1c[nH]cn1)C(=O)N[C@@H](Cc1ccccc1)C(=O)N[C@@H](CCCNC(=N)N)C(=O)N[C@@H](Cc1c[nH]c2ccccc12)C(=O)N[C@@H](CC(=O)O)C(=O)N[C@@H](CCCNC(=N)N)C(=O)N[C@@H](Cc1ccccc1)C(N)=O [γ-MSH, γ-melanocyte stimulating hormone]
[1]
  pressor, cardioaccelerator and natriuretic actions: potent pressor, cardioaccelerator and natriuretic actions
[2]
  ability to stimulate pigmentation: little or no ability to stimulate pigmentation
[3]
  potency rank among ligands (lowest EC50): most potent ligand and the one having the lowest EC50

Source: patent US5994087A, “Mammalian melanocortin receptors and uses” (Oregon Health Sciences University, priority 1995, dated 1999)
